Results reported in PubChem BioAssay (NCI).
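All cell lines were grown in 96-well plates and treated with compound for 48 hours. At the TGI there is no net growth.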

Tests used:
Assay in all cases: growth of human tumour cells (NCI), 48 h
SW-620 colon = tested on: SW-620 colon
SF-295 CNS = tested on: SF-295 CNS
HOP-62 NSCLC = tested on: HOP-62 NSCLC
CCRF-CEM leukemia = tested on: CCRF-CEM leukemia
OVCAR-4 ovarian = tested on: OVCAR-4 ovarian
SK-MEL-5 melanoma = tested on: SK-MEL-5 melanoma
HCT-116 colon = tested on: HCT-116 colon
OVCAR-5 ovarian = tested on: OVCAR-5 ovarian
RPMI-8226 leukemia = tested on: RPMI-8226 leukemia
HCC-2998 colon = tested on: HCC-2998 colon
PC-3 prostate = tested on: PC-3 prostate
A498 renal = tested on: A498 renal
MOLT-4 leukemia = tested on: MOLT-4 leukemia

For CC1=C(O)c2ccccc2C(=O)C1=O, the TGI (SW-620 colon) was > 100 µM, the TGI (SF-295 CNS) was > 100 µM and the TGI (HOP-62 NSCLC) was > 100 µM. For the same compound, the TGI (CCRF-CEM leukemia) was > 100 µM, the TGI (OVCAR-4 ovarian) was > 100 µM and the TGI (SK-MEL-5 melanoma) was > 65.1 µM. The TGI (HCT-116 colon) was > 100 µM, the TGI (OVCAR-5 ovarian) was > 100 µM and the TGI (RPMI-8226 leukemia) was > 100 µM. For the same compound, the TGI (HCC-2998 colon) was > 100 µM, the TGI (PC-3 prostate) was > 100 µM and the TGI (A498 renal) was > 100 µM. The TGI (MOLT-4 leukemia) was > 100 µM.

In the case of O=C1O[C@H]2[C@H](OC(=O)c3cc(O)c(O)c(O)c3)[C@@H](OC(=O)c3cc(O)c(O)c4c3[C@@H]3C1=CC(=O)C(O)(O)C3(O)O4)[C@H](OC(=O)c1cc(O)c(O)c(O)c1)O[C@@H]2COC(=O)c1cc(O)c(O)c(O)c1 (stereo partly drawn), the TGI (SW-620 colon) was > 100 µM, the TGI (SF-295 CNS) was > 100 µM and the TGI (HOP-62 NSCLC) was > 100 µM. For the same compound, the TGI (CCRF-CEM leukemia) was > 100 µM, the TGI (OVCAR-4 ovarian) was > 100 µM and the TGI (SK-MEL-5 melanoma) was > 100 µM. The TGI (HCT-116 colon) was > 100 µM, the TGI (OVCAR-5 ovarian) was > 100 µM and the TGI (RPMI-8226 leukemia) was > 100 µM. The TGI (HCC-2998 colon) was > 100 µM, the TGI (PC-3 prostate) was > 100 µM and the TGI (A498 renal) was > 100 µM. For the same compound, the TGI (MOLT-4 leukemia) was > 100 µM.

In the case of O=C1CC(CC(=O)c2ccc(Br)cc2)C(=O)/C1=C(/O)c1ccc(Br)cc1 (stereo not drawn), the TGI (SW-620 colon) was > 100 µM, the TGI (SF-295 CNS) was > 100 µM and the TGI (HOP-62 NSCLC) was > 100 µM. The TGI (CCRF-CEM leukemia) was > 100 µM, the TGI (SK-MEL-5 melanoma) was > 100 µM and the TGI (HCT-116 colon) was > 100 µM. For the same compound, the TGI (OVCAR-5 ovarian) was > 100 µM, the TGI (RPMI-8226 leukemia) was > 100 µM and the TGI (HCC-2998 colon) was > 100 µM. For the same compound, the TGI (PC-3 prostate) was > 100 µM, the TGI (A498 renal) was > 100 µM and the TGI (MOLT-4 leukemia) was > 100 µM.

With CCOC(=O)c1c(NC(=S)Nc2ccc(Cl)cc2)sc2c1CCN(C)C2 the TGI (SF-295 CNS) was > 100 µM, the TGI (HOP-62 NSCLC) was > 100 µM and the TGI (CCRF-CEM leukemia) was > 100 µM. For the same compound, the TGI (SK-MEL-5 melanoma) was > 100 µM, the TGI (HCT-116 colon) was > 100 µM and the TGI (OVCAR-5 ovarian) was > 100 µM. For the same compound, the TGI (RPMI-8226 leukemia) was > 100 µM, the TGI (PC-3 prostate) was > 100 µM and the TGI (A498 renal) was > 100 µM. The TGI (MOLT-4 leukemia) was > 100 µM.

For COc1ccccc1C(O)[C@@H]1C[C@@H]2[C@H]3CC[C@@](C)([C@@H]2O1)C3(C)C (stereo partly drawn), the TGI (SW-620 colon) was 37.9 µM, the TGI (SF-295 CNS) was 34.6 µM and the TGI (HOP-62 NSCLC) was 35.1 µM. For the same compound, the TGI (CCRF-CEM leukemia) was 44.1 µM, the TGI (SK-MEL-5 melanoma) was 31.6 µM and the TGI (HCT-116 colon) was 43.1 µM. It also gave a TGI (OVCAR-5 ovarian) of 38.6 µM, a TGI (RPMI-8226 leukemia) of 78.7 µM and a TGI (HCC-2998 colon) of 41.8 µM. For the same compound, the TGI (PC-3 prostate) was 45.2 µM, the TGI (A498 renal) was 29.5 µM and the TGI (MOLT-4 leukemia) was 39 µM.

For COc1ccc2c(c1)/C(=C\c1c(Cl)[nH]c3ccccc13)C(=O)N2, the TGI (SW-620 colon) was 13.4 µM, the TGI (SF-295 CNS) was 6.26 µM and the TGI (HOP-62 NSCLC) was 17.9 µM. The TGI (CCRF-CEM leukemia) was 13.4 µM, the TGI (SK-MEL-5 melanoma) was 14.8 µM and the TGI (HCT-116 colon) was 10.8 µM. It also gave a TGI (OVCAR-5 ovarian) of 26.8 µM, a TGI (RPMI-8226 leukemia) of 16.3 µM and a TGI (HCC-2998 colon) of 13.3 µM. For the same compound, the TGI (PC-3 prostate) was 18 µM, the TGI (A498 renal) was 23.7 µM and the TGI (MOLT-4 leukemia) was 41 µM.

In the case of CC(=O)OCC(=O)OC[C@H](OCc1ccccc1)[C@@H]1[C@H](OC(C)=O)C(=O)N1Cc1ccccc1, the TGI (SW-620 colon) was > 100 µM, the TGI (SF-295 CNS) was > 100 µM and the TGI (HOP-62 NSCLC) was > 100 µM. The TGI (CCRF-CEM leukemia) was > 100 µM, the TGI (OVCAR-4 ovarian) was > 100 µM and the TGI (SK-MEL-5 melanoma) was > 100 µM. The TGI (HCT-116 colon) was > 100 µM, the TGI (OVCAR-5 ovarian) was > 100 µM and the TGI (RPMI-8226 leukemia) was > 100 µM. The TGI (PC-3 prostate) was > 100 µM, the TGI (A498 renal) was > 100 µM and the TGI (MOLT-4 leukemia) was > 100 µM.

With CN(C)c1c(C2OC(CO)C(O)C2O)c(=O)c1=O (stereo not drawn) the TGI (SW-620 colon) was > 100 µM, the TGI (SF-295 CNS) was > 55.4 µM and the TGI (HOP-62 NSCLC) was > 100 µM. For the same compound, the TGI (CCRF-CEM leukemia) was > 100 µM, the TGI (OVCAR-4 ovarian) was > 100 µM and the TGI (HCT-116 colon) was > 100 µM. The TGI (OVCAR-5 ovarian) was > 100 µM, the TGI (RPMI-8226 leukemia) was > 100 µM and the TGI (HCC-2998 colon) was > 100 µM. The TGI (PC-3 prostate) was > 100 µM, the TGI (A498 renal) was > 100 µM and the TGI (MOLT-4 leukemia) was > 100 µM.

In the case of O=[S@]1c2ccc3ccccc3c2N[C@@H]2[C@H]1[C@H]1C=C[C@@H]2C1, the TGI (SW-620 colon) was > 100 µM, the TGI (SF-295 CNS) was > 100 µM and the TGI (HOP-62 NSCLC) was > 100 µM. For the same compound, the TGI (CCRF-CEM leukemia) was 68.4 µM, the TGI (OVCAR-4 ovarian) was > 100 µM and the TGI (SK-MEL-5 melanoma) was > 100 µM. For the same compound, the TGI (HCT-116 colon) was > 100 µM, the TGI (OVCAR-5 ovarian) was > 100 µM and the TGI (RPMI-8226 leukemia) was > 100 µM. For the same compound, the TGI (PC-3 prostate) was > 100 µM, the TGI (A498 renal) was > 100 µM and the TGI (MOLT-4 leukemia) was > 100 µM.
